# Measurements reported in patent US12090149B2, “SMAD3 inhibitors” (Moexa Pharmaceuticals Limited, priority 2018, dated 2024).
# Where “and” joins values, the source holds several entries; their conditions need not be identical. Equal values may be shown once. Entries after “also recorded” stand apart in the source; their conditions may differ.
# Legend:
# B16-F10 syngeneic model = assay: Subcutaneous B16-F10 syngeneic model, tumor growth; assay type: in vivo, C57BL/6 mice
# Protocol: In order to evaluate the in vivo efficacy of SIS3 and novel compounds of the present invention, a study has been conducted in treatment of the subcutaneous B16-F10 syngeneic models.
# (§1) • Animal species and strain: C57BL/6 mice • History of treatment: Naive • Sex, age and weight: Female, 6-8 weeks • Breeder/supplier: Shanghai SLAC Laboratory Animal Co. Ltd • Adaptation: At least 7 days • Room: SPF Room • Room temperature: 20-26° C. • Room relative humidity: 40-70% • Light cycle: Fluorescent light for 12-hour light (08:00-20:00) and 12-hour dark • Animal hosting: 2-5 mice/cage each group • Food: Free access to food • Water: Free access to water (municipal tap water filtered by reverse osmosis or high-pressure sterilizer)
# B16-F10 cell was maintained at 37° C. under 5% CO2 in DMEM medium supplemented with 10% FBS and were subsequently cultured within 10 passages before inoculated into the mice.
# (§2) B16-F10 cells (3×10^5 in 100 μL of serum-free medium) were inoculated to each of C57BL/6 mice via s.c. under anesthesia by 3-4% isoflurane. Each group contains 15 mice.
# (§3) When average tumor volume reached 35-60 mm^3, 15 mice were randomized into group 6. The day of inoculation was denoted as day 0.
# Tumor dimensions were measured on Day 4, 5, 6, 8, 11, 13, 15 and 18, after inoculation in 2 dimensions with calipers.
# When required, tumor volume was measured daily. The tumor volume (V) was calculated as follows: V=(length×width^2)/2.
# The individual relative tumor volume (RTV) was calculated as follows: RTV=Vt/V0, where Vt was the volume on each day, and V0 was the volume at the beginning of the treatment.
# Tumor growth inhibition (TGI), TGI=(1−(Ti−T0)/(Ci−C0))×100%; Ti and Ci as the mean tumor volumes of the treatment and control groups on the measurement day; T0 and C0 as the mean tumor volumes of the treatment and control groups on day 0
# (§4) Results were expressed as mean±S.E.M. Comparisons between two groups were made by Dunnett's multi-comparison test, p<0.05 were considered as significant.
# [1] = Body weight of tumor bearing mice in the B16-F10 syngeneic model; assay type: in vivo, C57BL/6 mice
# Protocol: as §1, §2, §3
# Body weight was measured on Day 4, 5, 6, 8, 11, 13, 15 and 18 after inoculation. When required, body weight was measured daily.
# as §4
# [2] = 100 mg/kg q.d. * 3W i.p. (group 6), Day 13
# [3] = 100 mg/kg q.d. * 3W i.p. (group 6), Day 15
# [4] = 100 mg/kg q.d. * 3W i.p. (group 6), Day 18
# [5] = 100 mg/kg q.d. * 3W i.p. (group 6, randomized at tumor volume 35-60 mm^3), Day 8
# [6] = single agent, i.p. QD*3 weeks, SIS3 10 and 30 mg/kg, MO-00005 10, 30 and 100 mg/kg, vs vehicle
structure (smiles),measurement,setting,value
"COc1cc2c(cc1OC)CN(C(=O)/C=C/c1c(-c3ccccc3)nc3ccccn13)CC2 [Compound 8, (E)-1-(6,7-dimethoxy-3,4-dihydroisoquinolin-2(1H)-yl)-3-(2-phenylimidazo[1,2-a]pyridin-3-yl)prop-2-en-1-one]",Relative tumor volume Mean,"B16-F10 syngeneic model; 100 mg/kg q.d. * 3W i.p. (group 6), Day 11, RTV=Vt/V0",3.70
same,Tumor growth inhibition (%) TGI,"B16-F10 syngeneic model; 100 mg/kg q.d. * 3W i.p. (group 6), Day 11, calculated based on tumor volume of Day 8",29%
same,Tumor Sizes (mm3) Mean,"B16-F10 syngeneic model; 100 mg/kg q.d. * 3W i.p. (group 6), Day 11, listed as MO-00005",155.10 mm3 and 155.1 mm3
same,Tumor Sizes (mm3) Mean,B16-F10 syngeneic model; [2],335.85 mm3
same,Relative tumor volume Mean,"B16-F10 syngeneic model; 100 mg/kg q.d. * 3W i.p. (group 6), Day 13, RTV=Vt/V0",7.98
same,Tumor growth inhibition (%) TGI,"B16-F10 syngeneic model; 100 mg/kg q.d. * 3W i.p. (group 6), Day 13, calculated based on tumor volume of Day 8",46%
same,Tumor Sizes (mm3) Mean,B16-F10 syngeneic model; [3],724.03 mm3
same,Relative tumor volume Mean,"B16-F10 syngeneic model; 100 mg/kg q.d. * 3W i.p. (group 6), Day 15, RTV=Vt/V0",17.31
same,Tumor growth inhibition (%) TGI,"B16-F10 syngeneic model; 100 mg/kg q.d. * 3W i.p. (group 6), Day 15, calculated based on tumor volume of Day 8",32%
same,Tumor Sizes (mm3) Mean,B16-F10 syngeneic model; [4],2107.22 mm3
same,Relative tumor volume Mean,"B16-F10 syngeneic model; 100 mg/kg q.d. * 3W i.p. (group 6), Day 18, RTV=Vt/V0",50.47
same,Tumor growth inhibition (%) TGI,"B16-F10 syngeneic model; 100 mg/kg q.d. * 3W i.p. (group 6), Day 18, calculated based on tumor volume of Day 8",25%
same,Tumor Sizes (mm3) Mean,B16-F10 syngeneic model; [5],42.19 mm3
same,reduction of tumor weight compared to the control group,"B16-F10 syngeneic model; high dose group, after 18 days of the experiment",~50%
same,anti-tumor activity against the B16-F10 syngeneic model (in words),B16-F10 syngeneic model; [6],anti-tumor response; also recorded: significant anti-tumor activity; also recorded: inhibits the growth of cancer
same,efficacy on tumor weight (in words),B16-F10 syngeneic model; [6],significant efficacy on tumor weight
same,Body weight (g) Mean,"[1]; 10 mg/kg q.d. * 3W i.p., Day 1",16.73 g
same,Body weight (g) Mean,"[1]; 10 mg/kg q.d. * 3W i.p., Day 4",16.41 g
same,Body weight (g) Mean,"[1]; 10 mg/kg q.d. * 3W i.p., Day 5",16.26 g
same,Body weight (g) Mean,"[1]; 10 mg/kg q.d. * 3W i.p., Day 6",16.21 g
same,Body weight (g) Mean,"[1]; 10 mg/kg q.d. * 3W i.p., Day 8",16.67 g
same,Body weight (g) Mean,"[1]; 10 mg/kg q.d. * 3W i.p., Day 11",17.33 g
same,Body weight (g) Mean,"[1]; 10 mg/kg q.d. * 3W i.p., Day 13",17.51 g
same,Body weight (g) Mean,"[1]; 10 mg/kg q.d. * 3W i.p., Day 15",18.85 g
same,Body weight (g) Mean,"[1]; 10 mg/kg q.d. * 3W i.p., Day 18",21.26 g
same,Body weight (g) Mean,"[1]; 30 mg/kg q.d. * 3W i.p., Day 1",16.70 g
same,Body weight (g) Mean,"[1]; 30 mg/kg q.d. * 3W i.p., Day 4",16.54 g
same,Body weight (g) Mean,"[1]; 30 mg/kg q.d. * 3W i.p., Day 5",16.32 g
same,Body weight (g) Mean,"[1]; 30 mg/kg q.d. * 3W i.p., Day 6",16.18 g
same,Body weight (g) Mean,"[1]; 30 mg/kg q.d. * 3W i.p., Day 8",16.60 g
same,Body weight (g) Mean,"[1]; 30 mg/kg q.d. * 3W i.p., Day 11",17.36 g
same,Body weight (g) Mean,"[1]; 30 mg/kg q.d. * 3W i.p., Day 13",17.78 g
same,Body weight (g) Mean,"[1]; 30 mg/kg q.d. * 3W i.p., Day 15",18.73 g
same,Body weight (g) Mean,"[1]; 30 mg/kg q.d. * 3W i.p., Day 18",20.93 g
same,Body weight (g) Mean,"[1]; 100 mg/kg q.d. * 3W i.p. (group 6), Day 11",17.20 g
same,Body weight (g) Mean,[1]; [2],17.95 g
same,Body weight (g) Mean,[1]; [3],18.78 g
same,Body weight (g) Mean,[1]; [4],21.82 g
same,Body weight (g) Mean,[1]; [5],17.36 g
